Test results from patent US20240294543A1, “CYCLOHEPTA-THIENO-DIAZEPINE DERIVATIVES AS GABA A GAMMA1 PAM” (Hoffmann-La Roche Inc., priority 2021, published 2024).

Columns and labels:
[1] = biological target: human GABAA α5β2γ1 receptor (Homo sapiens (Human), UniProt P31644+Q8N1C3); experiment: Radioligand binding assay, competition for [3H]RO7239181, γ1-containing GABAA subtypes
h-GABA-A α2β2γ1 = h-GABA-A α2β2γ1 (Homo sapiens (Human), UniProt P47869+Q8N1C3); experiment: Two-electrode voltage clamp electrophysiology in Xenopus oocytes expressing GABAA receptors; type: cell-based; conditions: for Efficacy (GABA) %: % modulation of GABA EC20 = 100*(Fold increase−1), compound at about 30-fold its Ki α2β2γ1; for Fold increase h-GABA-A α2β2γ1 oocyte @ 30-fold Ki: Xenopus oocytes, GABA EC20, compound at about 30-fold its Ki α2β2γ1
How it was run: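 Xenopus oocytes injected with receptor subunit RNA and recorded 3–5 days later by two-electrode voltage clamp at −80 mV, room temperature, pH 7.4. GABA applied at EC20 for 1.5 min, with and without test compound. Efficacy = extremum of the point-by-point ratio of the two responses, expressed as % modulation of GABA EC20; ≥3 oocytes per concentration.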

SMILES | Ki [1] | Efficacy (GABA) % (h-GABA-A α2β2γ1) | Fold increase h-GABA-A α2β2γ1 oocyte @ 30-fold Ki (h-GABA-A α2β2γ1)
C[C@@H]1N=C(c2c(F)cccc2F)c2c(sc3c2COC[C@H](C)O3)-n2nc(C(=O)N3CC(OC(C)(C)C)C3)nc21 [Example 41, (3-tert-butoxyazetidin-1-yl)-[(7S,15S)-9-(2,6-difluorophenyl)-7,15-dimethyl-13,16-dioxa-18-thia-2,3,5,8-tetrazatetracyclo[8.8.0.02,6.011,17]octadeca-1(10),3,5,8,11(17)-pentaen-4-yl]methanone] | 6.2 nM | 167% | 2.67
C[C@@H]1N=C(c2c(F)cccc2F)c2c(sc3c2CCCCC3)-n2c(C3CC3)nnc21 [Example 3, (7S)-3-cyclopropyl-9-(2,6-difluorophenyl)-7-methyl-18-thia-2,4,5,8-tetrazatetracyclo[8.8.0.02,6.011,17]octadeca-1(10),3,5,8,11(17)-pentaene] | 3.69 nM | 91% | 1.91
C[C@@H]1N=C(c2c(F)cccc2F)c2c(sc3c2COCCO3)-n2nc(C(=O)N3CC(F)C3)nc21 [Example 24, (3-fluoroazetidin-1-yl)-[(7S)-9-(2,6-difluorophenyl)-7-methyl-13,16-dioxa-18-thia-2,3,5,8-tetrazatetracyclo[8.8.0.02,6.011,17]octadeca-1(10),3,5,8,11(17)-pentaen-4-yl]methanone] | 1.25 nM | 59% | 1.59
C[C@@H]1N=C(c2c(F)cccc2F)c2c(sc3c2COCCO3)-n2nc(C(=O)NC3CC3)nc21 [Example 36] | 3.66 nM | 89% | 1.89
C[C@@H]1N=C(c2c(F)cccc2F)c2c(sc3c2COCCC3)-n2cc(C(=O)NCCO)nc21 [Example 66, (7S)-9-(2,6-difluorophenyl)-N-(2-hydroxyethyl)-7-methyl-13-oxa-18-thia-2,5,8-triazatetracyclo[8.8.0.02,6.011,17]octadeca-1(10),3,5,8,11(17)-pentaene-4-carboxamide] | 2.94 nM | 153% | 2.53
Cc1nnc2n1-c1sc3c(c1C(c1c(F)cccc1F)=N[C@H]2C)CC[C@@H](F)CO3 [Example 56, (7S,14R)-9-(2,6-difluorophenyl)-14-fluoro-3,7-dimethyl-16-oxa-18-thia-2,4,5,8-tetrazatetracyclo[8.8.0.02,6.011,17]octadeca-1(10),3,5,8,11(17)-pentaene] | 6.9 nM | 147% | 2.47
C[C@@H]1N=C(c2c(F)cccc2F)c2c(sc3c2COCCC3)-n2cc(C(=O)NCC(C)(C)O)nc21 [Example 67, (7S)-9-(2,6-difluorophenyl)-N-(2-hydroxy-2-methyl-propyl)-7-methyl-13-oxa-18-thia-2,5,8-triazatetracyclo[8.8.0.02,6.011,17]octadeca-1(10),3,5,8,11(17)-pentaene-4-carboxamide] | 7.4 nM | 164% | 2.64
C[C@@H]1N=C(c2c(F)cccc2F)c2c(sc3c2COCCC3)-n2nc(C(=O)N[C@H]3C[C@H](O)C3)nc21 [Example 63, (7S)-9-(2,6-difluorophenyl)-N-(trans-3-hydroxycyclobutyl)-7-methyl-13-oxa-18-thia-2,3,5,8-tetrazatetracyclo[8.8.0.02,6.011,17]octadeca-1(10),3,5,8,11(17)-pentaene-4-carboxamide] | 8.1 nM | 169% | 2.69
Cc1nc2n(n1)-c1sc3c(c1C(c1c(F)cccc1F)=N[C@H]2C)COCCO3 [Example 28, (7S)-9-(2,6-difluorophenyl)-4,7-dimethyl-13,16-dioxa-18-thia-2,3,5,8-tetrazatetracyclo[8.8.0.02,6.011,17]octadeca-1(10),3,5,8,11(17)-pentaene] | 0.89 nM | 40% | 1.40
C[C@@H]1N=C(c2c(F)cccc2F)c2c(sc3c2CCCCC3)-n2c(-c3cccnn3)nnc21 [Example 4, (7S)-9-(2,6-difluorophenyl)-7-methyl-3-pyridazin-3-yl-18-thia-2,4,5,8-tetrazatetracyclo[8.8.0.02,6.011,17]octadeca-1(10),3,5,8,11(17)-pentaene] | 8.65 nM | 119% | 2.19
[2H]C1([2H])OCc2c(sc3c2C(c2c(F)cccc2F)=N[C@@H](C)c2nc(C(=O)N4CCC4)nn2-3)OC1([2H])[2H] [Example 23, azetidin-1-yl-[(7S)-14,14,15,15-tetradeuterio-9-(2,6-difluorophenyl)-7-methyl-13,16-dioxa-18-thia-2,3,5,8-tetrazatetracyclo[8.8.0.02,6.011,17]octadeca-1(10),3,5,8,11(17)-pentaen-4-yl]methanone] | 2.49 nM | 63% | 1.63
Cc1nc2n(n1)-c1sc3c(c1C(c1c(F)cccc1F)=N[C@H]2C)COC[C@H](C)O3 [Example 39, (7S,15S)-9-(2,6-difluorophenyl)-4,7,15-trimethyl-13,16-dioxa-18-thia-2,3,5,8-tetrazatetracyclo[8.8.0.02,6.011,17]octadeca-1(10),3,5,8,11(17)-pentaene] | 3.47 nM | 150% | 2.50
C[C@@H]1N=C(c2c(F)cccc2F)c2c(sc3c2COCCO3)-n2nc(C(=O)N3CCC3)nc21 [Example 22, azetidin-1-yl-[(7S)-9-(2,6-difluorophenyl)-7-methyl-13,16-dioxa-18-thia-2,3,5,8-tetrazatetracyclo[8.8.0.02,6.011,17]octadeca-1(10),3,5,8,11(17)-pentaen-4-yl]methanone] | 1.12 nM | 88% | 1.88
Cc1nnc2n1-c1sc3c(c1C(c1c(F)cccc1F)=N[C@H]2C)CCCCC3O (mixture of isomers) [Example 9, (7S,16RS)-9-(2,6-difluorophenyl)-3,7-dimethyl-18-thia-2,4,5,8-tetrazatetracyclo[8.8.0.02,6.011,17]octadeca-1(10),3,5,8,11(17)-pentaen-16-ol] | 2.79 nM | 96% | 1.96
Cc1nnc2n1-c1sc3c(c1C(c1c(F)cccc1Cl)=N[C@H]2C)COCCO3 [Example 35, (7S)-9-(2-chloro-6-fluoro-phenyl)-3,7-dimethyl-13,16-dioxa-18-thia-2,4,5,8-tetrazatetracyclo[8.8.0.02,6.011,17]octadeca-1(10),3,5,8,11(17)-pentaene] | 5.21 nM | 61% | 1.61
C[C@@H]1N=C(c2c(F)cccc2F)c2c(sc3c2COCCO3)-n2nc(C(=O)NCC(C)(C)O)nc21 [Example 45, (7S)-9-(2,6-difluorophenyl)-N-(2-hydroxy-2-methyl-propyl)-7-methyl-13,16-dioxa-18-thia-2,3,5,8-tetrazatetracyclo[8.8.0.02,6.011,17]octadeca-1(10),3,5,8,11(17)-pentaene-4-carboxamide] | 3.25 nM | 101% | 2.01
CCNC(=O)c1nc2n(n1)-c1sc3c(c1C(c1c(F)cccc1F)=N[C@H]2C)COCCO3 [Example 37, (7S)-9-(2,6-difluorophenyl)-N-ethyl-7-methyl-13,16-dioxa-18-thia-2,3,5,8-tetrazatetracyclo[8.8.0.02,6.011,17]octadeca-1(10),3,5,8,11(17)-pentaene-4-carboxamide] | 3.21 nM | 86% | 1.86
Cc1nc2n(n1)-c1sc3c(c1C(c1c(F)cccc1F)=N[C@H]2C)CCCCC3 [Example 20, (7S)-9-(2,6-difluorophenyl)-4,7-dimethyl-18-thia-2,3,5,8-tetrazatetracyclo[8.8.0.02,6.011,17]octadeca-1(10),3,5,8,11(17)-pentaene] | 0.98 nM | 76% | 1.76
C[C@@H]1N=C(c2c(F)cccc2F)c2c(sc3c2COCCC3)-n2nc(C(=O)NCC3(O)CC3)nc21 [Example 62, (7S)-9-(2,6-difluorophenyl)-N-[(1-hydroxycyclopropyl)methyl]-7-methyl-13-oxa-18-thia-2,3,5,8-tetrazatetracyclo[8.8.0.02,6.011,17]octadeca-1(10),3,5,8,11(17)-pentaene-4-carboxamide] | 5.9 nM | 179% | 2.79
Cc1nnc2n1-c1sc3c(c1C(c1c(F)cccc1F)=N[C@H]2C)COCCO3 [Example 21, (7S)-9-(2,6-difluorophenyl)-3,7-dimethyl-13,16-dioxa-18-thia-2,4,5,8-tetrazatetracyclo[8.8.0.02,6.011,17]octadeca-1(10),3,5,8,11(17)-pentaene] | 2.33 nM | 140% | 2.40
